The text below walks through data of patent US8865737B2, “Antitumor agent for undifferentiated gastric cancer” (Eisai R&D Management Co., Ltd., priority 2006, dated 2014).

Experiment [1] addresses T1, FGFR2 recombinant protein (Homo sapiens, UniProt P21802).
T1 construct: purchased Upstate (UK)
Description: FGFR2 kinase inhibitory activity (cell free kinase assay, Upstate). The class given is biochemical. To be noted: poly(Glu, Tyr)4:1 substrate, [γ-33P]-ATP, 40 minutes at room temperature.
Description: Specifically, the FGFR2 kinase inhibitory activity was measured as follows.
MgATP was added to 25 μL of solution containing 5-10 mU of FGFR2 recombinant protein, 8 mM MOPS (pH 7.0), 0.2 mM EDTA, 2.5 mM MnCl2, 0.1 mg/ml poly (Glu, Tyr)4:1, 10 mM Mg Acetate, 500 cpm/mol [γ-^33P]-ATP and a test substance to initiate reaction.
Following 40 minutes of reaction at room temperature, 5 μL of 3% phosphoric acid was added to terminate the reaction. 10 μL of the reaction solution was spotted on Filtermat A, which was washed with 75 mM phosphoric acid for five times and once with ethanol and then dried. The radioactivity of the spot was determined (measured).
In this regard, a value obtained when substrate Poly(Glu, Tyr)4:1 was contained but not the FGFR2 recombinant protein was assumed 0% value while a value obtained when the FGFR2 recombinant protein and substrate Poly(Glu, Tyr)4:1 were contained but not the test substance was assumed 100% value.
The kinase activity in the presence of the test substance at each concentration was calculated as percentage of the value obtained by subtracting the 0% value from each radioactivity value to the value obtained by subtracting the 0% value from the 100% value.

In experiment [2] the test system is FGFR2. The experiment is described as follows: FGFR2 phosphorylation in human undifferentiated gastric cancer cell lines (immunoprecipitation, western blotting). The class given is cell-based. To be noted: 1 μM, one hour; KATO-III, SNU-16 and HSC-39 cells (FIG. 1). The protocol: Human undifferentiated gastric cancer cell lines (KATO-III (purchased from ATCC)), SNU-16 (purchased from ATCC) and HSC-39 (purchased from Immuno-Biological Laboratories)) were suspended in RPMI1640 media (purchased from Sigma) containing 10% FBS (fetal bovine serum). KATO-III, SNU-16 and HSC-39 are cells showing FGFR2 gene amplification (Laboratory Investigation, 78, 1143-1153, 1998), and are also known as scirrhous gastric cancer cell lines. Each 10 mL of the cell suspensions (5×10^5 cells/mL) was placed into a 75 cm^2 cell culture flask (purchased from FALCON) and cultured in a 5% CO2 incubator (37° C.) overnight. In the case of KATO-III, the medium was replaced by an RMPI1640 medium containing 1% FBS. To this, 10 mL of the test substance 4-(3-chloro-4-(cyclopropylaminocarbonyl)aminophenoxy)-7-methoxy-6-quinolinecarboxamide (methanesulfonate) diluted in RPMI1640 containing 1% or 10% FBS was added and cultured in a 5% CO2 incubator (37° C.) for an hour. The culture solution was collected, each flask was washed with 5 mL PBS, and the mixture of the collected culture and the washing solution was centrifuged at 1,000 rpm, at 4° C. for 5 minutes. […]

The subject of experiment [3] is HSC-39. Description: Cell proliferation, Cell Counting Kit-8. The class given is cell-based. Conditions: Homo sapiens, 72 h; HSC-39, 10% FBS, three days; read-out: inhibition of cell proliferation IC50. The protocol:
(§1) Human undifferentiated gastric cancer cell lines (KATO-III (purchased from ATCC)), SNU-16 (purchased from ATCC) and HSC-39 (purchased from Immuno-Biological Laboratories)) were suspended in RPMI1640 media (purchased from Sigma) containing 10% FBS except that KATO-III was suspended in an RMPI1640 medium containing 1% FBS. The cell suspensions (KATO-III: 6×10^4 cells/mL; SNU-16 and HSC-39: 2×10^4 cells/mL) were placed into a 96-well cell culture plate (purchased from NUNC) at 0.1 mL/well and cultured in a 5% CO2 incubator (37° C.) overnight. Following cultivation, 0.1 mL of the test substance 4-(3-chloro-4-(cyclopropylaminocarbonyl)aminophenoxy)-7-methoxy-6-quinolinecarboxamide (methanesulfonate) diluted in an RPMI1640 medium containing 1% or 10% FBS was added to each well and further cultured in a 5% CO2 incubator (37° C.) for three days. Following cultivation, 20 μL of Cell Counting Kit-8 (purchased from DOJINDO) was added to each well and allowed to develop color in a 5% CO2 incubator (37° C.) to determine (measure) the absorbance of each well by using a plate reader MTP-500 (Corona Electric) at a measurement wavelength of 450 nm and a reference wavelength of 660 nm.

The subject of experiment [4] is KATO-III. The experiment is described as follows: Cell proliferation, Cell Counting Kit-8. Conditions: Homo sapiens, 72 h, 1% FBS, three days, read-out: inhibition of cell proliferation IC50. The class given is cell-based. The protocol:
as §1

The subject of experiment [5] is SNU-16. The experiment is described as follows: Cell proliferation, Cell Counting Kit-8. Format: cell-based. Conditions: Homo sapiens, 72 h; SNU-16, 10% FBS, three days; read-out: inhibition of cell proliferation IC50. The protocol: as §1
The test system of experiment [6] is HSC-39. The experiment is described as follows: Apoptosis of human undifferentiated gastric cancer cell line (PARP / caspase-3 fragmentation, western blotting). The class given is cell-based. Conditions: 1 μM, HSC-39, one or three days (FIG. 2). The protocol: Human undifferentiated gastric cancer cell line HSC-39 (purchased from Immuno-Biological Laboratories) was suspended in an RPMI1640 medium (purchased from Sigma) containing 10% FBS. Five mL of the cell suspension (4×10^5 cells/mL) was placed into a […] (purchased from FALCON). To this, 5 mL of the test substance 4-(3-chloro-4-(cyclopropylaminocarbonyl)aminophenoxy)-7-methoxy-6-quinolinecarboxamide (methanesulfonate) diluted in an RPMI1640 medium containing 10% FBS was added and cultured in a 5% CO2 incubator (37° C.) for one or three days. The culture solution was collected and each flask was washed with 5 mL PBS. The mixture of the collected culture solution and the washing solution was centrifuged at 1,000 rpm, at 4° C. for 5 minutes. For precipitation, 100 μL of a lysis buffer (50 mM Hepes (pH 7.4), 150 mM NaCl, 10% (v/v) glycerol, 1% Triton X-100, 1.5 mM MgCl2, 1 mM EDTA (pH 8.0), 100 mM NaF, 1 mM PMSF, 10 μg/mL Aprotinin, 50 μg/mL Leupeptin, 1 μg/mL Pepstatin A, 1 mM Na3VO4) was added to solubilize the cells. This solution was collected and centrifugated at 15,000 rpm, at 4° C. for 15 minutes. An SDS buffer was added to the supernatant to prepare a 25 μg/15 μL solution and the resultant was treated at 94° C. for 5 minutes to solubilize the protein, which was prepared as a cell sample solution. […]

Experiment [7] deals with HSC-39. The experiment is described as follows: Anti-tumor effect, subcutaneous transplanted (xenograft) model. Format: in vivo, nude mice. To be noted: HSC-39 xenograft, oral 1, 3, 10, 30 or 100 mg/kg once a day, four-weeks schedule (FIG. 3). The protocol:
(§2) Human undifferentiated gastric cancer cell lines (KATO-III (purchased from ATCC)), SNU-16 (purchased from ATCC) and HSC-39 (purchased from Immuno-Biological Laboratories) were cultured with RPMI1640 (containing 10% FBS) in a 5% CO2 incubator at 37° C. The cells were collected with trypsin-EDTA according to a conventional method. The cells were suspended in a phosphate buffer to prepare a 5×10^7 cells/mL suspension. Each 0.1 mL of the resulting cell suspensions was subcutaneously transplanted into the side of body of nude mice (purchased from Charles River). Following transplantation, the test substance 4-(3-chloro-4-(cyclopropylaminocarbonyl)aminophenoxy)-7-methoxy-6-quinolinecarboxamide (methanesulfonate) dissolved in distilled water for injection (purchased from Otsuka Pharmaceutical) was orally administered at 1, 3, 10, 30 or 100 mg/kg once a day on a four-weeks schedule (except for KATO-III, 30 or 100 mg/kg, once a day, two-weeks schedule) once the tumor volume became (reached) about 100-200 mm^3. The major and minor axes of tumors were measured with Digimatic caliper (Mitsutoyo), and tumor volumes were calculated according to the following formulae. Tumor Volume (TV)=Major axis of tumor (mm)×(Minor axis of tumor)^2 (mm^2)/2

In experiment [8] the test system is KATO-III. Described as above. The class given is in vivo, nude mice. To be noted: oral 30 or 100 mg/kg once a day, two-weeks schedule (FIG. 3). The protocol:
as §2

Experiment [9] has as its system SNU-16. The description is as above. Format: in vivo, nude mice. To be noted: SNU-16 xenograft, oral 1, 3, 10, 30 or 100 mg/kg once a day, four-weeks schedule (FIG. 3). The protocol:
as §2

The subject of experiment [10] is FGFR2. The experiment is described as follows: FGFR2 phosphorylation in tumor tissues of subcutaneous transplanted (xenograft) models. To be noted: SNU-16 and HSC-39 xenografts, oral 10, 30 or 100 mg/kg, tumors removed two hours after administration (FIG. 4). The class given is in vivo, nude mice. The protocol:
Human undifferentiated gastric cancer cell lines (SNU-16 (purchased from ATCC) and HSC-39 (purchased from Immuno-Biological Laboratories) were cultured with RPMI1640 (containing 10% FBS) in a 5% CO2 incubator (37° C.) and cells were collected with trypsin-EDTA according to a conventional method. The cells were suspended in a phosphate buffer to prepare a 5×10^7 cells/mL suspension. Each 0.1 mL of the resulting cell suspensions was subcutaneously transplanted into the side of body of nude mice (purchased from Charles River).
Following transplantation, the test substance 4-(3-chloro-4-(cyclopropylaminocarbonyl)aminophenoxy)-7-methoxy-6-quinolinecarboxamide (methanesulfonate) dissolved in distilled water for injection (purchased from Otsuka Pharmaceutical) was orally administered at 10, 30 or 100 mg/kg once the tumor volume became (reached) about 400-800 mm^3. Tumors were removed two hours after the administration, to which a lysis buffer (50 mM Hepes (pH 7.4), 150 mM NaCl, 10% (v/v) glycerol, 1% TritonX-100, 1.5 mM MgCl2, 1 mM EDTA (pH 8.0), 100 mM NaF, 1 mM PMSF, 10 μg/mL Aprotinin, 50 μg/mL Leupeptin, 1 μg/mL Pepstatin A, 1 mM Na3VO4) and 25 mM β-glycerophosphate and phosphatase inhibitor cocktail II (SIGMA)) was added for homogenization. The resultant was centrifugated at 15,000 rpm, at 4° C. for 15 minutes. 1000 μg/500 μL of The supernatant was prepared as a tumor extract. […]

Structures are written as SMILES. Where only a bound is given, the exact number is not on record here.

T1 sequence (P21802 22-821): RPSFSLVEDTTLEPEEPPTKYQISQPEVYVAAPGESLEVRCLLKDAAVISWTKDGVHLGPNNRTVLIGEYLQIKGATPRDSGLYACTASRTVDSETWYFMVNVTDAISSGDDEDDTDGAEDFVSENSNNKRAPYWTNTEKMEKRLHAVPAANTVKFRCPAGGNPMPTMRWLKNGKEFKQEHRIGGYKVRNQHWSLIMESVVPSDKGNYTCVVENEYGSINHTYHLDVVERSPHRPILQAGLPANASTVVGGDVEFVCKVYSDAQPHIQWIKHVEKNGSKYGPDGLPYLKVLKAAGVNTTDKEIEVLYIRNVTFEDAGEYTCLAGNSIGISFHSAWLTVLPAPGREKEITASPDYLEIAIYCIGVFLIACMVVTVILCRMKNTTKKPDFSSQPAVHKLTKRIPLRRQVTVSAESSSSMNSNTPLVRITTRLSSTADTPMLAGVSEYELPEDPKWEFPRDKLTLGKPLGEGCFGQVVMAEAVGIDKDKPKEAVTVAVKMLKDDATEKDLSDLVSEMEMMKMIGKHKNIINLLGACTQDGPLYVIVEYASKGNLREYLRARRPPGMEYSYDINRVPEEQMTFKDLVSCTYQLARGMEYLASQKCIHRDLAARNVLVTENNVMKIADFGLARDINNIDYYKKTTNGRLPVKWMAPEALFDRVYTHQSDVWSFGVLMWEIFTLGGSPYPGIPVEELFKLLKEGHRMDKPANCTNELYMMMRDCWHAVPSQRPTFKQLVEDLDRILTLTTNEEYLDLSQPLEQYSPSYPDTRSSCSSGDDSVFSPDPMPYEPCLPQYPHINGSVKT

On to `COc1cc2nccc(Oc3ccc(NC(=O)NC4CC4)c(Cl)c3)c2cc1C(N)=O` [4-(3-chloro-4-(cyclopropylaminocarbonyl)aminophenoxy)-7-methoxy-6-quinolinecarboxamide], for which the IC50 in experiment [1] was under 10 nM; in the experiment on HSC-39 [3], 157 nM; in the experiment with KATO-III [4] it was 141 nM; with SNU-16 [5], 251 nM. Further, in the experiment on FGFR2 [2], the “phosphorylation of FGFR2” value is reported as “almost completely inhibited”. Further, the cleaved-PARP result in the experiment on HSC-39 [6] is listed as “clearly detected”. Also, the cleaved-caspase-3 entry in the experiment with HSC-39 [6] is on record as “clearly detected”. The “anti-tumor effect (tumor volume)” value in the experiment with HSC-39 [7], in the experiment on KATO-III [8] and in the experiment with SNU-16 [9] was “dose-dependent anti-tumor effect” throughout. In addition, the “phosphorylation of FGFR2 in tumor” value in the experiment on FGFR2 [10] is on record as “inhibit phosphorylation of FGFR2”.
